Experimental data published in PubChem BioAssay (NCI).
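Where inhibition never reached the appropriate level, the endpoint shown equals the highest concentration tested. Otherwise, values were interpolated linearly from a five-concentration, 48-hour dose response in 96-well plates. TGI denotes the concentration required for complete inhibition of growth.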

Tests used:
Assay in all cases: growth of human tumour cells (NCI), 48 h
[1] = system: 786-0 renal
[2] = system: A549 NSCLC
[3] = system: ACHN renal
[4] = system: BT-549 breast
[5] = system: CAKI-1 renal
[6] = system: CCRF-CEM leukemia
[7] = system: COLO 205 colon
[8] = system: DU-145 prostate
[9] = system: EKVX NSCLC
[10] = system: HCC-2998 colon
[11] = system: HCT-116 colon
[12] = system: HCT-15 colon
[13] = system: HL-60(TB) leukemia
[14] = system: HOP-62 NSCLC
[15] = system: HOP-92 NSCLC
[16] = system: HS 578T breast
[17] = system: HT29 colon
[18] = system: IGROV1 ovarian
[19] = system: K-562 leukemia
[20] = system: KM12 colon
[21] = system: LOX IMVI melanoma
[22] = system: M14 melanoma
[23] = system: MALME-3M melanoma
[24] = system: MCF7 breast
[25] = system: MDA-MB-231 breast
[26] = system: MDA-MB-435
[27] = system: MDA-N
[28] = system: MOLT-4 leukemia
[29] = system: NCI-H226 lung
[30] = system: NCI-H23 lung
[31] = system: NCI-H460 lung
[32] = system: NCI-H522 lung
[33] = system: NCI/ADR-RES ovarian
[34] = system: OVCAR-3 ovarian
[35] = system: OVCAR-5 ovarian
[36] = system: OVCAR-8 ovarian
[37] = system: PC-3 prostate
[38] = system: RPMI-8226 leukemia
[39] = system: RXF 393 renal
[40] = system: SF-268 CNS
[41] = system: SF-295 CNS
[42] = system: SF-539 CNS
[43] = system: SK-MEL-2 melanoma
[44] = system: SK-MEL-28 melanoma
[45] = system: SK-MEL-5 melanoma
[46] = system: SK-OV-3 ovarian
[47] = system: SN12C renal
[48] = system: SNB-19 CNS
[49] = system: SNB-75 CNS
[50] = system: SR leukemia
[51] = system: SW-620 colon
[52] = system: T-47D breast
[53] = system: U251 CNS
[54] = system: UACC-257 melanoma
[55] = system: UACC-62 melanoma
[56] = system: UO-31 renal

Compound: CCSC1=N/C(=C/c2ccccc2O)C(=O)N1
- TGI [1]: > 100 µM
- TGI [2]: > 100 µM
- TGI [3]: > 100 µM
- TGI [4]: > 100 µM
- TGI [5]: > 100 µM
- TGI [6]: > 100 µM
- TGI [7]: > 100 µM
- TGI [8]: > 100 µM
- TGI [9]: > 100 µM
- TGI [10]: > 100 µM
- TGI [11]: > 100 µM
- TGI [12]: > 100 µM
- TGI [13]: > 100 µM
- TGI [14]: > 100 µM
- TGI [15]: > 100 µM
- TGI [16]: > 100 µM
- TGI [17]: > 100 µM
- TGI [18]: > 100 µM
- TGI [19]: > 100 µM
- TGI [20]: > 100 µM
- TGI [21]: > 100 µM
- TGI [22]: > 100 µM
- TGI [23]: > 100 µM
- TGI [24]: > 100 µM
- TGI [25]: > 100 µM
- TGI [26]: > 100 µM
- TGI [27]: > 100 µM
- TGI [28]: > 100 µM
- TGI [29]: > 100 µM
- TGI [30]: > 100 µM
- TGI [31]: > 100 µM
- TGI [32]: > 100 µM
- TGI [33]: > 100 µM
- TGI [34]: > 100 µM
- TGI [35]: > 100 µM
- TGI [36]: > 100 µM
- TGI [37]: > 100 µM
- TGI [38]: > 100 µM
- TGI [39]: 68.1 µM
- TGI [40]: > 100 µM
- TGI [41]: > 100 µM
- TGI [42]: 91.8 µM
- TGI [43]: > 100 µM
- TGI [44]: > 100 µM
- TGI [45]: > 100 µM
- TGI [46]: > 100 µM
- TGI [47]: > 100 µM
- TGI [48]: > 100 µM
- TGI [49]: 72.1 µM
- TGI [50]: > 100 µM
- TGI [51]: > 100 µM
- TGI [52]: > 100 µM
- TGI [53]: > 100 µM
- TGI [54]: > 100 µM
- TGI [55]: > 100 µM
- TGI [56]: > 100 µM
